Assay results: patent publication US7678918B2, “Intermediates for imidazonaphthyridines” (3M Innovative Properties Company, priority 1997, dated 2010)
Structures can show the parent of a compound that is named as a salt.

Tests used:
IFN = experiment: Cytokine Induction in Human Cells: interferon (IFN) secreted by PBMCs, A549/encephalomyocarditis bioassay; assay type: cell-based; settings: 18 to 24 hours
Description: (§1) An in vitro human blood cell system was used to assess cytokine induction by compounds of the invention. Activity is based on the measurement of interferon and tumor necrosis factor (ℑ) (IFN and TNF, respectively) secreted into culture media as described by Testerman et. al. In “Cytokine Induction by the Immunomodulators Imiquimod and S-27609”, Journal of Leukocyte Biology, 58, 365-372 (September, 1995). Blood Cell Preparation for Culture
(§2) Whole blood is collected by venipuncture into EDTA vacutainer tubes from healthy human donors. Peripheral blood mononuclear cells (PBMCs) are separated from whole blood by Histopaque®-1077 (Sigma Chemicals, St. Louis, Mo.) density gradient centrifugation. The PBMCs are suspended at 1.5-2×10^6 cells/mL in RPMI 1640 medium containing 10% fetal bovine serum, 2 mM L-glutamine and 1% penicillin/streptomycin solution (RPMI complete). 1 mL portions of PBMC suspension are added to 24 well flat bottom sterile tissue culture plates.
(§3) The compounds are solubilized in dimethyl sulfoxide (DMSO). The DMSO concentration should not exceed a final concentration of 1% for addition to the culture wells. The compounds are generally tested in a concentration range of from 0.1 to 100 μM.
(§4) The solution of test compound is added to the wells containing 1 mL of PBMCs in media. The plates are covered with plastic lids, mixed gently and then incubated for 18 to 24 hours at 37° C. with a 5% carbon dioxide atmosphere.
(§5) Following incubation the plates are centrifuged for 5-10 minutes at 1000 rpm (˜200×g) at 4° C. The cell culture supernatant is removed with a sterile polypropylene pipet and transferred to a 2 mL sterile cryotube. Samples are maintained at −70° C. until analysis.
Interferon is determined by bioassay using A549 human lung carcinoma cells challenged with encephalomyocarditis. The details of the bioassay method have been described by G. L. Brennan and L. H. Kronenberg in “Automated Bioassay of Interferons in Micro-test Plates”, Biotechniques, June/July 78, 1983, incorporated herein by reference. Briefly stated the method is as follows: A549 cells are incubated with samples and standard interferon dilutions at 37° C. for 24 hours. The incubated cells are then infected with an inoculum of encephalomyocarditis virus. The infected cells are incubated for an additional 24 hours at 37° C. before quantifying for viral cytopathic effect. The viral cytopathic effect is quantified by staining followed by visual scoring of the plates. Results are expressed as alpha reference units/mL based on the value obtained for NIH Human Leukocyte IFN standard.

TNF = experiment: Cytokine Induction in Human Cells: tumor necrosis factor (TNF) secreted by PBMCs, ELISA; assay type: cell-based; settings: 18 to 24 hours
Description: as §1, §2, §3, §4, §5
Tumor necrosis factor (ℑ) (TNF) concentration is determined using an ELISA kit available from Genzyme, Cambridge, Mass. The results are expressed as pg/mL.
Note: call rule not given here.

Compound	IFN induction (IFN; Dose Concentration 0.1 μM)	IFN induction (IFN; Dose Concentration 1.0 μM)	IFN induction (IFN; Dose Concentration 10.0 μM)	IFN induction (IFN; Dose Concentration 100.0 μM)	TNF induction (TNF; Dose Concentration 0.1 μM)	TNF induction (TNF; Dose Concentration 1.0 μM)	TNF induction (TNF; Dose Concentration 10.0 μM)	TNF induction (TNF; Dose Concentration 100.0 μM)
CCCCc1nc2c(N)nc3cccnc3c2n1CCCCNC(=O)Nc1ccccc1 [Example 47, N-[4-(4-Amino-2-butyl-1H-imidazo[4,5-c][1,5]naphthyridin-1-yl)butyl]-N′-phenylurea]	−	+	+	±	−	+	+	+
CCCCc1nc2c(N)nc3cccnc3c2n1CCCCNC(=O)NC1CCCCC1 [Example 48, N-[4-(4-Amino-2-butyl-1H-imidazo[4,5-c][1,5]naphthyridin-1-yl)butyl]-N′-cyclohexylurea]	+	+	+	−	−	+	+	−
CCCCNC(=O)NCCCCn1c(CCCC)nc2c(N)nc3cccnc3c21 [Example 49, N-[4-(4-Amino-2-butyl-1H-imidazo[4,5-c][1,5]naphthyridin-1-yl)butyl]-N′-butylurea]	+	+	+	+	−	+	+	+
CCCCc1nc2c(N)nc3cccnc3c2n1CCCCNC(=O)Oc1ccccc1 [Example 50, Phenyl N-[4-(4-Amino-2-butyl-1H-imidazo[4,5-c][1,5]naphthyridin-1-yl)butyl]carbamate]		+	+	−		+	+	−
CCCCc1nc2c(N)nc3cccnc3c2n1CCCCNC(=O)c1ccco1 [Example 51, N-[4-(4-Amino-2-butyl-1H-imidazo[4,5-c][1,5]naphthyridin-1-yl)butyl]-2-furamide]		+	+	+		+	+	−
CCCCc1nc2c(N)nc3cccnc3c2n1CCCCNC(=O)c1ccccc1 [Example 52, N-[4-(4-Amino-2-butyl-1H-imidazo[4,5-c][1,5]naphthyridin-1-yl)butyl]benzamide]		+	+	−		+	+	−
CCCCc1nc2c(N)nc3cccnc3c2n1CCCCNC(=O)NCc1ccccc1 [Example 53, N-[4-(4-Amino-2-butyl-1H-imidazo[4,5-c][1,5]naphthyridin-1-yl)butyl]-N′-benzylurea]	+	+	+	+	−	+	+	−
CCCCc1nc2c(N)nc3cccnc3c2n1CCCCNC(=O)c1cccnc1 [Example 54, N^3-[4-(4-Amino-2-butyl-1H-imidazo[4,5-c][1,5]naphthyridin-1-yl)butyl]nicotinamide]		+	+	+		+	+	+
CCCCc1nc2c(N)nc3cccnc3c2n1CCCCNC(=O)Cc1ccccc1 [Example 55, N-[4-(4-Amino-2-butyl-1H-imidazo[4,5-c][1,5]naphthyridin-1-yl)butyl]phenylaceatamide]		+	+	+		+	+	−
CCCCc1nc2c(N)nc3cccnc3c2n1CCCCNC(=O)OCc1ccccc1 [Example 56, Benzyl N-[4-(4-Amino-2-butyl-1H-imidazo[4,5-c][1,5]naphthyridin-1-yl)butyl]carbamate]	−	+	+	−	−	−	+	−
CCCCc1nc2c(N)nc3cccnc3c2n1CCCCNC(=O)OCC1c2ccccc2-c2ccccc21 [Example 57, 9H-9-Fluorenylmethyl N-[4-(4-Amino-2-butyl-1H-imidazo[4,5-c][1,5]naphthyridin-1-yl)butyl]carbamate]	−	+	+	+	−	−	+	+
CCCCc1nc2c(N)nc3cccnc3c2n1CCCCNC(=O)OCC [Example 58, Ethyl N-[4-(4-Amino-2-butyl-1H-imidazo[4,5-c][1,5]naphthyridin-1-yl)butyl]carbamate]	+	+	+	−	−	+	+	−
CCCCc1nc2c(N)nc3cccnc3c2n1CCNC(=O)CCc1ccccc1 [Example 96, N^1-[2-(4-Amino-2-butyl-1H-imidazo[4,5-c][1,5]naphthyridin-1-yl)ethyl]-3-phenylpropanamide Hydrochloride]	−	±	+	+	−	−	+	+
CCCCc1nc2c(N)nc3cccnc3c2n1CCNC(=O)C(N)CC(C)C (centres unmarked) [Example 102, N^1-[2-(4-Amino-2-butyl-1H-imidazo[4,5-c][1,5]naphthyridin-1-yl)ethyl]-2-amino-4-methylpentanamide]	+	+	+	+	+	+	+	+
CCCCc1nc2c(N)nc3cccnc3c2n1CCCCNC(=O)CCCCn1cnc2c1c(=O)n(C)c(=O)n2C [Example 105, N^1-[4-(4-Amino-2-butyl-1H-imidazo[4,5-c][1,5]naphthyridin-1-yl)butyl]-5-(1,3-dimethyl-2,6-oxo-2,3,6,7-tetrahydro-1H-purinyl)pentamide]	+	+	+	+	−	−	+	+
CCCCc1nc2c(N)nc3cccnc3c2n1CCCCNC(=O)c1ccc(N2CCOCC2)nc1 [Example 106, N^1-[4(4-Amino-2-butyl-1H-imidazo[4,5-c][1,5]naphthyridin-1-yl)butyl]-6-morpholinonicotinamide]	+	+	+	−	−	+	+	−
CCCCc1nc2c(N)nc3cccnc3c2n1CCCCNC(=O)c1ccc2ncccc2c1 [Example 107, N^1-[4-(4-Amino-2-butyl-1H-imidazo[4,5-c][1,5]naphthyridin-1-yl)butyl]-6-quinolinecarboxamide]	+	+	+	−	−	+	+	−
CCCCc1nc2c(N)nc3cccnc3c2n1CCCCNC(=O)c1ccc(C(=O)c2ccccc2)cc1 [Example 113, N^1-[4-(4-Amino-2-butyl-1H-imidazo[4,5-c][1,5]naphthyridin-1-yl)butyl]-4-benzoylbenzamide]	−	+	+	+	−	+	+	+
